Source: US5506204A, “Muramyl compounds for treatment of septic shock” (Peptech (UK) Limited, priority 1991, dated 1996)
Read-outs that look alike come from different tables or passages of the source.

Experiments:
Pyrogenicity = settings: in vivo
Protocol: The expression "non pyrogenic or of low pyrogenicity" refers to a compound which induces an increase in temperature of an adult human of less than half a degree following the administration of 1 to 2 mg of the compound.
First, muramyl peptide compounds useful in the invention may be non-pyrogenic. Pyrogenicity may be simply measured by methods well known in the art.

neutrophils [1] = system: neutrophils
Protocol: (§1) Neutrophils were isolated from peripheral blood. 3.5 ml of heparinised blood was spread over M-PRM medium (Flow Laboratories) and centrifuged for 40 minutes at 400g at 20° C. […] The cells were adjusted to a concentration of 2×10^6 ml.
Superoxide anion production was determined by the NBT test (Merck).
(§2) For chemiluminescence, superoxide anion production, myeloperoxidase and acid phosphatase both the spontaneous and induced reactions were measured. Induction was performed by exposing the cells to opsonized zymosan (30 μl, 20 mg/ml) for 30 minutes at 37° C. before the assay.
In the treated group GMDP was given per os on days -2 and -1 before the operation, and subcutaneously on days +1, +2 and +3 after the operation at a dose of 1-2 mg/day. The total dose of GMDP was […]. On day +5 after the operation neutrophil function was again assessed in all patients by the same parameters as specified above.

neutrophils [2] = system: neutrophils; remark: listed apart in the source
Protocol: as §1
Adhesion: 100 μl of neutrophil suspension were placed in the wells of a flat-bottomed culture dish, and incubated at 37° C. for 60 minutes. After washing off the non-adhesive cells, the adhered neutrophils were fixed with ethanol and stained with Romanovsky-Giemsa dye. After washing out the free dye, the cell-associated dye was dissolved in isopropanol, and the optical density (OD650) of the solution was determined using an "ELISA II" microprocessor (Boehringer). The number of adherent cells was calculated by reference to a standard curve.
(§3) On day before treatment with GMDP (day -1) the neutrophil function of all patients was measured by the tests described above in Example 1. In the GMDP-treated group, GMDP was administered parenterally at a dose of 1-2 mg/day for five consecutive days. The total dose of GMDP was […].
(§4) One day after the cessation of GMDP treatment (day +6), neutrophil function was again measured in all patients.

neutrophils [3] = system: neutrophils; remark: listed apart in the source
Protocol: as §1
Chemiluminescence: Luminol-dependent chemiluminescence was measured on a 1251 Luminometer (LKB).
as §2, §3, §4

[4] = system: LPS-induced mortality in mice; assay: Example 3: LPS-induced mortality in mice; type: in vivo, BALB/c mice; settings: i.p. twice daily 100 μg or molar equivalent per mouse for 9 days before 300 μg LPS; mortality 2 days after LPS; FIG. 1
Protocol: 25 female BALB/c mice weighing 16-18 g each were divided into 5 groups, each group containing 5 animals. Each group of mice received twice-daily doses of saline, GMDP, GMDP-OBu, MDP or GMDP-A. The compounds were administered by intra-peritoneal injection in twice-daily doses of 100 μg or the molar equivalent per mouse during a 9-day period before the injection of 300 μg LPS per mouse. […] Thus GMDP and GMDP-A would be useful in the treatment and prevention of sepsis and septic shock, whereas MDP and GMDP-OBu would not.

TNFα = assay: Example 5: TNF production in whole blood culture; type: cell-based; settings: human blood diluted 1:2, 6 hours at 37° C., TNFα capture ELISA; FIG. 3
Protocol: Whole heparinized human blood was diluted 1:2 with RPMI and dispensed into 96-well microtitre plates. Individual wells were treated with saline, GMDP, MDP or LPS at the doses shown above. After incubating at 37° C. for 6 hours, the supernatants were assayed for TNFα by a standard capture ELISA method. […] This is a sensitive assay for measuring the effect of mediators on immune cell production of TNFα which is believed to be a primary mediator of inflammation, coagulopathy and death in sepsis and septic shock. It can be seen that GMDP is the least inflammatory mediator; the respective TNF inducing activities of these substances would […] correlate with their toxicities.

IL-1 = assay: Example 6: IL-1 production by peritoneal macrophages in response to LPS; type: in vivo, BALB/c mice; settings: 2 injections 12 hours apart; macrophages stimulated with LPS 25 μg/ml 24 hours; thymocyte co-stimulation bioassay; FIG. 4
Protocol: Mice (BALB/c, female) 13-14 g, 5 animals in each group, received 2 injections of MDPs, 12 hours apart. The MDPs tested were MDP, muroctasin, MDP-Thr, MDP-OBu, GMDP-LL, GMDP-Lys(St) and GMDP-A. After the last injection, peritoneal cells were collected and the induction of IL-1 secretion by peritoneal macrophages was tested.
Macrophages were collected from the peritoneal cavity of mice by lavage with Hank's balanced salt solution. After washing the cells, they were then placed in wells of flat-bottomed 96-well plates and incubated at 37° C. for 1 hour in RPMI containing 5% FCS. The plates were then washed with warm RPMI to remove non-adhering cells. LPS (25 μg/ml) was then added in fresh culture medium and the plates were further cultured for 24 hours.
Production of IL-1 by peritoneal macrophages was assayed by thymocyte co-stimulation bioassay. Thymocytes from (CBA*C57BL.6)F1 mice (106), PHA (1 μg.ml), and the tested supernatant (50 μl) were placed into the wells of flat-bottomed 96-well plates. Thymocyte proliferation rate was measured 72 hours later by the incorporation of 3H TdR (1 μCi.well) during 6 hours prior to culture termination.

serum TNF = assay: Example 7: LPS induction of serum TNF; type: in vivo, BALB/c mice; settings: C. parvum-primed mice, 100 μg (equimolar) IP, LPS 25 μg 18 hours later; FIG. 5
Protocol: In this experiment, 4 compounds were tested and these are: MDP, GMDP-A, GMDP-OBu and GMDP. Saline was administered to control mice. BALB/c mice (6 mice/group) were injected intraperitoneally with 1.4 mg of dead C. parvum (0.2 ml of a 7 mg/ml suspension.). Mice were subsequently (2 weeks later) treated with saline, MDP (100 μg) or analogue (100 μg) in 0.5 ml saline IP. The dose of each `MDP` was adjusted so that animals received equimolar amounts. LPS (25 μg) was injected 18 hours after the injection of MDP/analogue and mice were subsequently sacrificed and bled out. TNF was determined by standard capture ELISA assay.

mice = settings: acute toxicity in mice; cited from earlier work
peritoneal macrophages = settings: 100 μg i.p. per mouse, LPS 300 μg one day later, black ink uptake, OD 610 nm; FIG. 2
Protocol: Mice were divided into 9 groups and to each group was administered one of the following: saline, MDP, MDP-OBu, MDP-Thr, GMDP, MDP-Lys(St), GMDP-OH and GMDP-LL.
The compound under test was injected into the peritoneal cavity of mice, each mouse receiving 100 μg or an equimolar equivalent dose. Control mice received 200 μl of saline. One day after injection of the muramyl peptide, a lethal does of LPS (300 μg per mouse) in 200 μl of physiological saline was injected intraperitoneally and after 20 minutes, 1 ml of black ink was also administered intraperitoneally. 10 minutes later, peritoneal macrophages were obtained and washed twice. The number of cells was counted and then the macrophages were lysed and the optical density of the supernatant was determined at 610 nm.

SMILES: CC(=O)NC1C(OC2C(CO)OC(O)C(NC(C)=O)C2OC(C)C(=O)NC(C)C(=O)NC(CCC(=O)O)C(N)=O)OC(CO)C(O)C1O [GMDP, N-acetyl-D-glucosaminyl-(β1-4)-N-acetylmuramyl-L-alanyl-D-isoglutamine]
- pyrogenicity (Pyrogenicity): sufficiently low
- Superoxide, spontaneous (neutrophils [1]; Day +5): 97.6 ± 12.8
- Superoxide, spontaneous (neutrophils [1]; Day -3 (before treatment)): 78.9 ± 15.7
- Superoxide, spontaneous % Change (neutrophils [1]; Day -3 to Day +5): +23.7%
- Superoxide, induced (neutrophils [1]; opsonized zymosan, Day +5): 134.9 ± 11.3
- Superoxide, induced (neutrophils [1]; opsonized zymosan, Day -3 (before treatment)): 133.7 ± 16.1
- Superoxide, induced % Change (neutrophils [1]; opsonized zymosan, Day -3 to Day +5): +0.9%
- Adhesion (neutrophils [2]; Day +6): 52.3 ± 2.3 O.D. 650μ
- Adhesion (neutrophils [2]; Day -1 (before treatment)): 34.6 ± 6.2 O.D. 650μ
- Adhesion % Change (neutrophils [2]; Day -1 to Day +6): +51.2%
- Chemiluminescent, spontaneous (neutrophils [3]; Day +6): 4.16 ± 0.14 mV
- Chemiluminescent, spontaneous (neutrophils [3]; Day -1 (before treatment)): 2.41 ± 0.14 mV
- Chemiluminescent, spontaneous % Change (neutrophils [3]; Day -1 to Day +6): +72.6%
- Chemiluminescent, induced (neutrophils [3]; opsonized zymosan, Day +6): 21.3 ± 3.51 mV
- Chemiluminescent, induced (neutrophils [3]; opsonized zymosan, Day -1 (before treatment)): 9.41 ± 2.1 mV
- Chemiluminescent, induced % Change (neutrophils [3]; opsonized zymosan, Day -1 to Day +6): +126.4%
- effect on LPS-induced mortality [4]: antagonise the effect of LPS
- TNF production in whole blood culture (TNFα): poor inducer of TNF
- suppression of IL-1 production (IL-1): suppress the IL-1 response to LPS
- effect on LPS induction of serum TNF (serum TNF): able to suppress the production of TNFα
- LD50 (mice): 7000 mg/kg
- phagocytic activity of macrophages (peritoneal macrophages): potent in increasing macrophage activity
